# Laboratory results as given in patent US12252492B2, “Substituted fused pyrrolo-diazepinones and uses thereof” (Northwestern University, priority 2018, dated 2025).
# Assays:
# Assay type in all cases: cell-based, human
# SR = assay: NCI60 one-dose screen, SR; details: SR (Leukemia); NCI 60 one-dose, 10^-5 M
# Experimental: (§1) Anti-cancer activity screening of all compounds was performed by the NCI Developmental Therapeutics Program (DTP) through their NCI60 screening initiative. Assay details can be found at the website dtp.cancer.gov/discovery_development/nci-60/methodology.htm. Information from this website is reproduced here for convenience.
# (§2) As of early 2007 all compounds submitted to the NCI 60 Cell screen are tested initially at a single high dose (10^-5 M) in the full NCI 60 cell panel. Only compounds which satisfy pre-determined threshold inhibition criteria in a minimum number of cell lines will progress to the full 5-dose assay. The threshold inhibition criteria for progression to the 5-dose screen was selected to efficiently capture compounds with anti-proliferative activity based on careful analysis of historical DTP screening data. The threshold criteria may be updated as additional data becomes available.
# (§3) The One-dose data will be reported as a mean graph of the percent growth of treated cells and will be similar in appearance to mean graphs from the 5-dose assay. […]
# (§4) Following drug addition, the plates are incubated for an additional 48 h at 37° C., 5% CO2, 95% air, and 100% relative humidity. […] Bound stain is subsequently solubilized with 10 mM trizma base, and the absorbance is read on an automated plate reader at a wavelength of 515 nm. […]
# HOP-92 = assay: NCI60 one-dose screen, HOP-92; details: HOP-92 (Non-Small Cell Lung Cancer); NCI 60 one-dose, 10^-5 M
# Experimental: as §1, §2, §3, §4
# HCC-2998 = assay: NCI60 one-dose screen, HCC-2998; details: HCC-2998 (Colon Cancer); NCI 60 one-dose, 10^-5 M
# Experimental: as §1, §2, §3, §4
# HCT-116 = assay: NCI60 one-dose screen, HCT-116; details: HCT-116 (Colon Cancer); NCI 60 one-dose, 10^-5 M
# Experimental: as §1, §2, §3, §4
# HT29 = assay: NCI60 one-dose screen, HT29; details: HT29 (Colon Cancer); NCI 60 one-dose, 10^-5 M
# Experimental: as §1, §2, §3, §4
# SF-539 = assay: NCI60 one-dose screen, SF-539; details: SF-539 (CNS Cancer); NCI 60 one-dose, 10^-5 M
# Experimental: as §1, §2, §3, §4
# SNB-19 = assay: NCI60 one-dose screen, SNB-19; details: SNB-19 (CNS Cancer); NCI 60 one-dose, 10^-5 M
# Experimental: as §1, §2, §3, §4
# MALME-3M = assay: NCI60 one-dose screen, MALME-3M; details: MALME-3M (Melanoma); NCI 60 one-dose, 10^-5 M
# Experimental: as §1, §2, §3, §4
# SK-MEL-2 = assay: NCI60 one-dose screen, SK-MEL-2; details: SK-MEL-2 (Melanoma); NCI 60 one-dose, 10^-5 M
# Experimental: as §1, §2, §3, §4
# SK-MEL-5 = assay: NCI60 one-dose screen, SK-MEL-5; details: SK-MEL-5 (Melanoma); NCI 60 one-dose, 10^-5 M
# Experimental: as §1, §2, §3, §4
# UACC-257 = assay: NCI60 one-dose screen, UACC-257; details: UACC-257 (Melanoma); NCI 60 one-dose, 10^-5 M
# Experimental: as §1, §2, §3, §4
# UACC-62 = assay: NCI60 one-dose screen, UACC-62; details: UACC-62 (Melanoma); NCI 60 one-dose, 10^-5 M
# Experimental: as §1, §2, §3, §4
# OVCAR-3 = assay: NCI60 one-dose screen, OVCAR-3; details: OVCAR-3 (Ovarian Cancer); NCI 60 one-dose, 10^-5 M
# Experimental: as §1, §2, §3, §4
# OVCAR-4 = assay: NCI60 one-dose screen, OVCAR-4; details: OVCAR-4 (Ovarian Cancer); NCI 60 one-dose, 10^-5 M
# Experimental: as §1, §2, §3, §4
# ACHN = assay: NCI60 one-dose screen, ACHN; details: ACHN (Renal Cancer); NCI 60 one-dose, 10^-5 M
# Experimental: as §1, §2, §3, §4
# DU-145 = assay: NCI60 one-dose screen, DU-145; details: DU-145 (Prostate Cancer); NCI 60 one-dose, 10^-5 M
# Experimental: as §1, §2, §3, §4
# MDA-MB-231/ATCC = assay: NCI60 one-dose screen, MDA-MB-231; details: MDA-MB-231/ATCC (Breast Cancer); NCI 60 one-dose, 10^-5 M
# Experimental: as §1, §2, §3, §4
# T-47D = assay: NCI60 one-dose screen, T-47D; details: T-47D (Breast Cancer); NCI 60 one-dose, 10^-5 M
# Experimental: as §1, §2, §3, §4
Structure (SMILES),Growth Percent (SR),Growth Percent (HOP-92),Growth Percent (HCC-2998),Growth Percent (HCT-116),Growth Percent (HT29),Growth Percent (SF-539),Growth Percent (SNB-19),Growth Percent (MALME-3M),Growth Percent (SK-MEL-2),Growth Percent (SK-MEL-5),Growth Percent (UACC-257),Growth Percent (UACC-62),Growth Percent (OVCAR-3),Growth Percent (OVCAR-4),Growth Percent (ACHN),Growth Percent (DU-145),Growth Percent (MDA-MB-231/ATCC),Growth Percent (T-47D)
CC(=O)N1c2ccccc2NC2=C(C(=O)N(C)C2(C)C)C1c1ccccc1 (stereo not drawn) [NUCC-60872],16.70%,37.54%,60.81%,24.91%,25.22%,20.14%,39.87%,44.26%,8.92%,27.50%,36.37%,32.33%,18.09%,55.16%,95.96%,78.98%,63.32%,28.72%
CC(=O)N1c2ccccc2NC2=C(C(=O)N(Cc3ccccc3)C2(C)C)C1c1ccco1 (stereo not drawn) [NUCC-608455],23.29%,21.07%,3.73%,7.52%,9.99%,−17.85%,23.61%,69.89%,16.91%,7.88%,77.61%,21.25%,−7.65%,48.83%,33.51%,7.82%,9.25%,35.10%
